Measurements taken from the supplement of paper PMC6965134.
± gives the standard deviation of the averaged measurements. Values belong to the molecule of their own block, whether it stands above or below them.

Assay: TIMS collisional cross section (CCS, N2) of the lipid ion; higher = larger ion cross section
Details: ionization mode: negative, one isomer drawn
Experimental: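 Lipid extracts of human plasma (NIST SRM 1950), mouse liver or HeLa cells were separated by nanoflow C18 LC (30 min gradient) and analysed by TIMS-PASEF on a timsTOF Pro. Ion mobility was calibrated with the Agilent tuning mix (negative mode ions) and converted to collisional cross sections (Mason–Schamp, N2).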

[1] = sample type: Human plasma, ion (formula + adduct): [C43H78NO9P-H] 1-
[2] = sample type: Mouse Liver, ion (formula + adduct): [C43H78NO9P-H] 1-
[3] = sample type: Human plasma, ion (formula + adduct): [C45H78NO9P-H] 1-
[4] = sample type: Mouse Liver, ion (formula + adduct): [C42H76NO8P+AcO] 1-
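Further: lipids from MTBE extraction, five replicate injections per sample, 100 ms TIMS ramp spanning 0.6–1.95 Vs/cm², lipid identity assigned from PASEF MS/MS spectra.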

Structure (SMILES): CCCCC/C=C\C[C@H](O)/C=C/C=C\C/C=C\CCCC(=O)O[C@H](CO/C=C\CCCCCCCCCCCCCCCC)COP(=O)(O)OCCN [Oxidized PE 18:0@_20:4]
- TIMS collisional cross section (sample type: Human plasma, ion (formula + adduct): [C43H78NO8P-H] 1-): 280.43 ± 1.2 Å²

Structure (SMILES): CCCCC/C=C\C[C@H](O)/C=C/C=C\C/C=C\CCCC(=O)O[C@H](COC(=O)CCCCCCCCCCCCCCCCC)COP(=O)(O)OCCN [Oxidized PE 18:0@_20:4]
- TIMS collisional cross section [1]: 298.2 Å²
- TIMS collisional cross section [2]: 281.9 Å²

Structure (SMILES): CC/C=C\C/C=C\CC(O)/C=C/C=C\C/C=C\C/C=C\CCC(=O)O[C@H](COC(=O)CCCCCCCCCCCCCCCCC)COP(=O)(O)OCCN (stereo partly specified) [Oxidized PE 18:0@_22:6]
- TIMS collisional cross section [3]: 285.8 Å²

Structure (SMILES): CCCCC/C=C\C[C@H](O)/C=C/C=C\C/C=C\CCCC(=O)O[C@H](COC(=O)CCCCCCCCCCCCCCCCC)COP(=O)(O)OCCN [Oxidized PE 18:0_20:4]
- TIMS collisional cross section [1]: 282.5 Å²
- TIMS collisional cross section [2]: 279 Å²

Structure (SMILES): CC/C=C\C/C=C\CC(O)/C=C/C=C\C/C=C\C/C=C\CCC(=O)O[C@H](COC(=O)CCCCCCCCCCCCCCCCC)COP(=O)(O)OCCN (stereo partly specified) [Oxidized PE 18:0_22:6@]
- TIMS collisional cross section [3]: 287 Å²

Structure (SMILES): CC/C=C\C/C=C\CC(O)/C=C/C=C\C/C=C\C/C=C\CCC(=O)O[C@H](COC(=O)CCCCCCCCCCCCCCCCC)COP(=O)(O)OCCN (stereo partly specified) [Oxidized PE 18:0_22:6]
- TIMS collisional cross section [3]: 284.6 Å²

Structure (SMILES): CCCCC/C=C\C[C@H](O)/C=C/C=C\C/C=C\CCCC(=O)O[C@H](CO/C=C\CCCCCC/C=C\CCCCCCCC)COP(=O)(O)OCCN [Oxidized PE 18:1@_20:4]
- TIMS collisional cross section (sample type: Human plasma, ion (formula + adduct): [C43H76NO8P-H] 1-): 279.7 Å²

Structure (SMILES): CCCCCCCCCCCCCCCCCCCCC(=O)O[C@H](COC(=O)CCCCCCCCCCCCCCC)COP(=O)(O)O [PA 16:0_21:0@]
- TIMS collisional cross section (sample type: Mouse Liver, ion (formula + adduct): [C40H79O8P+Cl] 1-): 276.3 Å²

Structure (SMILES): CCCCCCCCCCCCCCCCCCCCCC(=O)O[C@H](COC(=O)CCCCCCCCCCCCCCCC)COP(=O)(O)O [PA 17:0_22:0@]
- TIMS collisional cross section (sample type: Human plasma, ion (formula + adduct): [C42H83O8P-CH3] 1-): 286.6 Å²

Structure (SMILES): CCCCCCCCCCCCCCCCCC(=O)OC[C@H](COP(=O)(O)O)OC(=O)CCCCCCCCCCCCCCC [PA 18:0@_16:0]
- TIMS collisional cross section (sample type: Mouse Liver, ion (formula + adduct): [C37H73O8P+Cl] 1-): 267.2 Å²

Structure (SMILES): CCCCCCCCCCCCCCCCCC(=O)OCC(COP(=O)(O)O)OC(=O)CCCCCCCCCCCCCCCCC (stereo unspecified) [PA 18:0_18:0]
- TIMS collisional cross section (sample type: Mouse Liver, ion (formula + adduct): [C39H77O8P+Cl] 1-): 273.4 Å²

Structure (SMILES): CCCCCCCCCCCCCCCCCC(=O)O[C@H](COC(=O)CCC)COP(=O)([O-])OCC[N+](C)(C)C [PC 4:0@_18:0]
- TIMS collisional cross section (sample type: Mouse Liver, ion (formula + adduct): [C30H60NO8P+HCOO] 1-): 248.5 Å²

Structure (SMILES): CCCCCCCCCCCCCCCCCCCC(=O)O[C@H](COC(=O)CCCCCCC)COP(=O)([O-])OCC[N+](C)(C)C [PC 8:0_20:0@]
- TIMS collisional cross section (sample type: Mouse Liver, ion (formula + adduct): [C36H72NO8P+HCOO] 1-): 277.6 Å²

Structure (SMILES): CCCCCCCCCCCCCC(=O)OC[C@H](COP(=O)([O-])OCC[N+](C)(C)C)OC(=O)CCCCCCCCCCCCC [PC 14:0_14:0]
- TIMS collisional cross section (sample type: Human plasma, ion (formula + adduct): [C36H72NO8P+HCOO] 1-): 277.1 Å²

Structure (SMILES): CCCCCCCCCCCCCCCC(=O)O[C@H](COC(=O)CCCCCCCCCCCCC)COP(=O)([O-])OCC[N+](C)(C)C [PC 14:0_16:0@]
- TIMS collisional cross section (sample type: Mouse Liver, ion (formula + adduct): [C38H76NO8P+HCOO] 1-): 283.8 Å²

Structure (SMILES): CCCCCCCCCCCCCCCC(=O)O[C@H](COC(=O)CCCCCCCCCCCCC)COP(=O)([O-])OCC[N+](C)(C)C [PC 14:0_16:0]
- TIMS collisional cross section (sample type: Human plasma, ion (formula + adduct): [C38H76NO8P+HCOO] 1-): 282.7 Å²

Structure (SMILES): CCCCCCCCCCCCCCCCCC(=O)O[C@H](COC(=O)CCCCCCCCCCCCC)COP(=O)([O-])OCC[N+](C)(C)C [PC 14:0_18:0]
- TIMS collisional cross section (sample type: Human plasma, ion (formula + adduct): [C40H80NO8P+HCOO] 1-): 287.7 Å²

Next, values leading:

- TIMS collisional cross section (sample type: Human plasma, ion (formula + adduct): [C36H70NO8P+HCOO] 1-): 275.3 Å²
Structure (SMILES): CCCCCC/C=C\CCCCCCCC(=O)O[C@H](COC(=O)CCCCCCCCCCC)COP(=O)([O-])OCC[N+](C)(C)C [PC 12:0@_16:1]

- TIMS collisional cross section (sample type: Human plasma, ion (formula + adduct): [C34H68NO8P+HCOO] 1-): 270.8 Å²
Structure (SMILES): CCCCCCCCCCCCCC(=O)O[C@H](COC(=O)CCCCCCCCCCC)COP(=O)([O-])OCC[N+](C)(C)C [PC 12:0_14:0]

- TIMS collisional cross section (sample type: Mouse Liver, ion (formula + adduct): [C39H74NO8P-H] 1-): 266.3 Å²
Structure (SMILES): CCCCC/C=C\C/C=C\CCCCCCCC(=O)O[C@H](COC(=O)CCCCCCCCCCCC)COP(=O)([O-])OCC[N+](C)(C)C [PC 13:0@_18:2]

- TIMS collisional cross section (sample type: Human plasma, ion (formula + adduct): [C41H74NO8P-H] 1-): 289.2 Å²
- TIMS collisional cross section (sample type: Mouse Liver, ion (formula + adduct): [C41H74NO8P-CH3] 1-): 267.1 Å²
- TIMS collisional cross section (sample type: Mouse Liver, ion (formula + adduct): [C41H74NO8P-H] 1-): 272.3 Å²
Structure (SMILES): CCCCC/C=C\C/C=C\C/C=C\C/C=C\CCCC(=O)O[C@H](COC(=O)CCCCCCCCCCCC)COP(=O)([O-])OCC[N+](C)(C)C [PC 13:0@_20:4]

- TIMS collisional cross section (sample type: Mouse Liver, ion (formula + adduct): [C38H74NO8P+HCOO] 1-): 280.9 Å²
Structure (SMILES): CCCCCC/C=C\CCCCCCCC(=O)O[C@H](COC(=O)CCCCCCCCCCCCC)COP(=O)([O-])OCC[N+](C)(C)C [PC 14:0@_16:1]

- TIMS collisional cross section (sample type: Mouse Liver, ion (formula + adduct): [C39H76NO8P-CH3] 1-): 265 Å²
Structure (SMILES): CCCCCCC/C=C\CCCCCCCC(=O)O[C@H](COC(=O)CCCCCCCCCCCCC)COP(=O)([O-])OCC[N+](C)(C)C [PC 14:0@_17:1]

- TIMS collisional cross section (sample type: Human plasma, ion (formula + adduct): [C40H78NO8P+HCOO] 1-): 286 Å²
Structure (SMILES): CCCCCC/C=C\CCCCCCCCCC(=O)O[C@H](COC(=O)CCCCCCCCCCCCC)COP(=O)([O-])OCC[N+](C)(C)C [PC 14:0@_18:1]

- TIMS collisional cross section (sample type: Human plasma, ion (formula + adduct): [C40H74NO8P+HCOO] 1-): 284.9 Å²
Structure (SMILES): CC/C=C\C/C=C\C/C=C\CCCCCCCC(=O)O[C@H](COC(=O)CCCCCCCCCCCCC)COP(=O)([O-])OCC[N+](C)(C)C [PC 14:0@_18:3]

- TIMS collisional cross section (sample type: Human plasma, ion (formula + adduct): [C40H72NO8P+HCOO] 1-): 277.9 Å²
Structure (SMILES): CC/C=C\C/C=C\C/C=C\C/C=C\CCCCC(=O)O[C@H](COC(=O)CCCCCCCCCCCCC)COP(=O)([O-])OCC[N+](C)(C)C [PC 14:0@_18:4]

- TIMS collisional cross section (sample type: Mouse Liver, ion (formula + adduct): [C42H76NO8P-H] 1-): 272.8 Å²
Structure (SMILES): CCCCC/C=C\C/C=C\C/C=C\C/C=C\CCCC(=O)O[C@H](COC(=O)CCCCCCCCCCCCC)COP(=O)([O-])OCC[N+](C)(C)C [PC 14:0@_20:4]

- TIMS collisional cross section (sample type: Mouse Liver, ion (formula + adduct): [C44H76NO8P-H] 1-): 277.87 ± 0.55 Å²
Structure (SMILES): CC/C=C\C/C=C\C/C=C\C/C=C\C/C=C\C/C=C\CCC(=O)O[C@H](COC(=O)CCCCCCCCCCCCC)COP(=O)([O-])OCC[N+](C)(C)C [PC 14:0@_22:6]

- TIMS collisional cross section (sample type: Human plasma, ion (formula + adduct): [C38H74NO8P+HCOO] 1-): 280.9 Å²
Structure (SMILES): CCCCCC/C=C\CCCCCCCC(=O)O[C@H](COC(=O)CCCCCCCCCCCCC)COP(=O)([O-])OCC[N+](C)(C)C [PC 14:0_16:1]

- TIMS collisional cross section (sample type: Mouse Liver, ion (formula + adduct): [C40H78NO8P+HCOO] 1-): 286 Å²
Structure (SMILES): CCCCCC/C=C\CCCCCCCCCC(=O)O[C@H](COC(=O)CCCCCCCCCCCCC)COP(=O)([O-])OCC[N+](C)(C)C [PC 14:0_18:1]

- TIMS collisional cross section (sample type: Mouse Liver, ion (formula + adduct): [C40H74NO8P+HCOO] 1-): 284 Å²
Structure (SMILES): CC/C=C\C/C=C\C/C=C\CCCCCCCC(=O)O[C@H](COC(=O)CCCCCCCCCCCCC)COP(=O)([O-])OCC[N+](C)(C)C [PC 14:0_18:3]

- TIMS collisional cross section [4]: 288.1 Å²
Structure (SMILES): CCCCC/C=C\C/C=C\C/C=C\C/C=C\CCCC(=O)O[C@H](COC(=O)CCCCCCCCCCCCC)COP(=O)([O-])OCC[N+](C)(C)C [PC 14:0_20:4@]

- TIMS collisional cross section (sample type: Human plasma, ion (formula + adduct): [C42H76NO8P+HCOO] 1-): 288.2 Å²
- TIMS collisional cross section [4]: 290.4 Å²
Structure (SMILES): CCCCC/C=C\C/C=C\C/C=C\C/C=C\CCCC(=O)O[C@H](COC(=O)CCCCCCCCCCCCC)COP(=O)([O-])OCC[N+](C)(C)C [PC 14:0_20:4]

- TIMS collisional cross section (sample type: Human plasma, ion (formula + adduct): [C42H74NO8P-CH3] 1-): 268.8 Å²
Structure (SMILES): CCCC/C=C\CCCCCCCC(=O)OC[C@H](COP(=O)([O-])OCC[N+](C)(C)C)OC(=O)CCC/C=C\C/C=C\C/C=C\C/C=C\CCCCC [PC 14:1@_20:4]

- TIMS collisional cross section (sample type: Mouse Liver, ion (formula + adduct): [C42H72NO8P-H] 1-): 269.9 Å²
Structure (SMILES): CC/C=C\C/C=C\C/C=C\C/C=C\C/C=C\CCCC(=O)O[C@H](COC(=O)CCCCCCC/C=C\CCCC)COP(=O)([O-])OCC[N+](C)(C)C [PC 14:1@_20:5]

- TIMS collisional cross section (sample type: Mouse Liver, ion (formula + adduct): [C38H74NO8P+Cl] 1-): 268.8 Å²
Structure (SMILES): CCCC/C=C\CCCCCCCC(=O)OC[C@H](COP(=O)([O-])OCC[N+](C)(C)C)OC(=O)CCCCCCCCCCCCCCC [PC 14:1_16:0]
